Key:
SH-SY5Y cells = assay: Human H3 acetylation assay (Western blot), cellular HDAC activity; type: cell-based; conditions: 1 and 0.1 µM, 2 and 6 h
Protocol: Human H3 acetylation assays: for the determination of global and K9-specific acetylation levels, 500,000 SH-SY5Y cells were seeded in 6-well plates in DMEM/F12 1:1 (Sigma), supplemented with 2 mM glutamine (LabClinics) and 10% FBS (Sigma) and incubated at 37 °C and 5% CO2 in a humid atmosphere. […] After 2 and 6 h of treatment, cells were harvested and centrifuged at 250× g for 4 min at room temperature and cell pellets used for total histone extraction with EpiQuik Total Histone Extraction Kit (Epigentek, Farmingdale, NY, USA) following manufacturer’s instructions. 1 µg of histone extracts were run in MOPS buffer in 12% PAGE (Life Technologies, Carlsbad, CA, USA) and transferred with the iBlot system to nitrocellulose membranes. Transferred blots were stained with the Ponceau S solution (Sigma) and scanned with an Epson Perfection V600 Photo Scanner. Membranes were blocked in blocking buffer (5% skimmed milk in PBS-Tween 0.1%) for 1 h at room temperature, and after blocking blots were incubated with rabbit polyclonal anti-H3K9Ac (1:2000 dilution, Abcam, Cambridge, UK) and rabbit polyclonal anti-H3ac (K9 + K14 + K18 + K23 + K27) (1:2000 dilution, Abcam) overnight at 4 °C in ablocking buffer. […]

[1] = test system: SMI-32 positive motoneurons in spinal cord explants; assay: Spinal cord organotypic cultures, chronic excitotoxicity (THA); type: cell-based, rat; conditions: ORY-2001 5, 25 and 125 nM, THA 100 µM
Protocol: Lumbar spinal cords were aseptically obtained from 8-day-old Sprague-Dawley rat pups previously euthanized by pentobarbital overdose. The tissue was placed in ice-cold high glucose containing (6.4 mg/mL) Gey’s Balanced Salt Solution (GBSS). Meninges and roots were removed, and the spinal cord was transversely sectioned into 350 µm thick slices with a McIlwain Tissue Chopper. Four slices were carefully transferred onto 30-mm-diameter Millicell-CM membranes (0.4 µm, Millipore, Billerica, MA, USA) into a 6-well plate (35-mm-diameter, Falcon) containing 1 mL of incubation medium [50% (v/v) minimal essential medium (MEM), 25 mM Hepes, 25% (v/v) heat- inactivated horse serum, 2 mM glutamine and 25% (v/v) Hank’s Balanced Salt Solution (HBSS) supplemented with 25.6 mg/mL glucose; pH 7.2. Cultures were allowed to stabilize for 1 week at 37 °C in a 5% CO2/95% air humidified environment, and thereafter medium was changed twice per week. After 7 days of the explant culture, chronic glutamate excitotoxicity was induced by exposure at DL-threo-β-hydroxyaspartic acid (THA; 100 µM; Sigma-Aldrich, Saint Louis, MO, USA). […] Motoneurons, identified by SMI-32 immunostaining and localization in the ventral horn, were counted by using the Cell Counter plugin of ImageJ software. A minimum of 12 sections were evaluated for each experimental condition.

| SMILES | impact on cellular HDAC activity (acetylated H3 or H3K9 levels) (SH-SY5Y cells) | protection of motoneurons compared with riluzole (5 µM) [1] | survival of SMI32 positive motoneurons challenged with THA ([1]; to 28 DIV) |
| --- | --- | --- | --- |
| CCCCCCCCc1ccc(CCC(N)(CO)CO)cc1 [FTY720, Fingolimod, reference compound] | unable to confirm the previous studies reporting that FTY720 or FTY720-P had any significant impact |  |  |
| Nc1nnc(CN[C@@H]2C[C@H]2c2ccc(OCc3ccccc3)cc2)o1 [ORY-2001] |  | outperformed the effect exerted by riluzole | protected the motoneurons from chronic excitotoxic stress at all doses tested |

Reference: PMC9323733, “Efficacy of Vafidemstat in Experimental Autoimmune Encephalomyelitis Highlights the KDM1A/RCOR1/HDAC Epigenetic Axis in Multiple Sclerosis” (Pharmaceutics, 2022)
